{"source": "patent US7858388B2", "about": "“MS based peptide and protein sequencing via reactions of lysine residues with peroxycarbonate compounds” (Vanderbilt University, priority 2004, dated 2010)", "assay": "Half-life of peroxycarbonate 1 in basic phosphate buffer (formation of p-nitrophenoxide)", "type": "physicochemical", "conditions": "pH 8.2 phosphate buffer (50% MeOH)", "method": "Reaction of p-nitrophenylchloroformate with tert-butyl hydroperoxide gave the peroxycarbonate 1 which was isolated by silica chromatography as a white solid. Pyridine was added dropwise to a 0° C. methylene chloride solution of the hydroperoxide and chloroformate. The product was characterized by ^1H and ^13C NMR, HRMS, mp=55-56° C. In basic water or water acetonitrile mixtures, 1 gave an almost immediate yellow color indicative of the formation of p-nitrophenoxide. The half-life of 1 in pH 8.2 phosphate buffer (50% MeOH) is approximately 112 sec. In basic aqueous acetonitrile solutions, αN-acetyl lysine methyl ester was converted cleanly to 2 on reaction with 10 equivalents of 1. The peroxycarbamate 2 (Ac-LPC-OMe) is stable to chromatography and can be fully characterized by spectroscopy and HRMS (“LPC” is used herein for lycine peroxycarbamate)."}
{"smiles": "CC(C)(C)OOC(=O)Oc1ccc([N+](=O)[O-])cc1", "note": "[compound 1]", "values": [{"measurement": "half-life", "value": "~1.87", "unit": "min"}]}
